The NIST ThermoML archive (doi:10.1021/je034177v)
± gives the expanded uncertainty stated by the source.

Experiment: molar heat capacity at constant pressure; xn = mol fraction of the nth substance listed
Details: 101 kPa, Liquid, Small sample (50 mg) DSC

ClCCCCCCCl [1,6-dichlorohexane] + CCCCCCCCCCCC
molar heat capacity at constant pressure [J/K/mol]
Details | 283.15 K | 288.15 K | 293.15 K | 298.15 K | 303.15 K | 308.15 K | 313.15 K | 318.15 K | 323.15 K
x1 = 0.0498 | 361.24 ± 5.6 | 363.25 ± 5.6 | 365.49 ± 5.7 | 367.75 ± 5.7 | 370.17 ± 5.7 | 372.73 ± 5.8 | 375.36 ± 5.8 | 378.07 ± 5.9 | 380.85 ± 5.9
x1 = 0.1003 | 354.21 ± 5.5 | 356.2 ± 5.5 | 358.37 ± 5.5 | 360.64 ± 5.6 | 363.07 ± 5.6 | 365.53 ± 5.7 | 368.13 ± 5.7 | 370.69 ± 5.7 | 373.37 ± 5.8
x1 = 0.1497 | 347.4 ± 5.4 | 349.35 ± 5.4 | 351.58 ± 5.5 | 353.74 ± 5.5 | 356.06 ± 5.5 | 358.52 ± 5.5 | 361.02 ± 5.6 | 363.62 ± 5.6 | 366.28 ± 5.7
x1 = 0.2527 | 333.57 ± 5.2 | 335.52 ± 5.2 | 337.63 ± 5.2 | 339.74 ± 5.3 | 341.93 ± 5.3 | 344.27 ± 5.3 | 346.63 ± 5.4 | 349.13 ± 5.4 | 351.62 ± 5.5
x1 = 0.4017 | 314.16 ± 4.9 | 315.92 ± 4.9 | 317.89 ± 4.9 | 319.79 ± 5 | 321.84 ± 5 | 323.95 ± 5 | 326.16 ± 5 | 328.4 ± 5.1 | 330.71 ± 5.1
x1 = 0.502 | 301.12 ± 4.7 | 302.83 ± 4.7 | 304.61 ± 4.7 | 306.46 ± 4.8 | 308.39 ± 4.8 | 310.38 ± 4.8 | 312.43 ± 4.8 | 314.57 ± 4.9 | 316.72 ± 4.9
x1 = 0.6 | 288.34 ± 4.5 | 289.93 ± 4.5 | 291.62 ± 4.5 | 293.38 ± 4.5 | 295.19 ± 4.6 | 297.07 ± 4.6 | 299.01 ± 4.6 | 300.97 ± 4.7 | 303.01 ± 4.7
x1 = 0.7011 | 275.07 ± 4.3 | 276.6 ± 4.3 | 278.22 ± 4.3 | 279.86 ± 4.3 | 281.55 ± 4.4 | 283.34 ± 4.4 | 285.15 ± 4.4 | 287 ± 4.5 | 288.89 ± 4.5
x1 = 0.7986 | 262.36 ± 4.1 | 263.83 ± 4.1 | 265.4 ± 4.1 | 266.9 ± 4.1 | 268.5 ± 4.2 | 270.16 ± 4.2 | 271.87 ± 4.2 | 273.6 ± 4.2 | 275.38 ± 4.3
x1 = 0.8998 | 249.37 ± 3.9 | 250.76 ± 3.9 | 252.22 ± 3.9 | 253.67 ± 3.9 | 255.12 ± 4 | 256.63 ± 4 | 258.18 ± 4 | 259.77 ± 4 | 261.42 ± 4
x1 = 0.9493 | 242.86 ± 3.8 | 244.24 ± 3.8 | 245.67 ± 3.8 | 247.09 ± 3.8 | 248.51 ± 3.9 | 249.99 ± 3.9 | 251.5 ± 3.9 | 253.03 ± 3.9 | 254.57 ± 3.9
x1 = 0.9691 | 240.39 ± 3.7 | 241.75 ± 3.8 | 243.14 ± 3.8 | 244.52 ± 3.8 | 245.9 ± 3.8 | 247.38 ± 3.8 | 248.85 ± 3.9 | 250.37 ± 3.9 | 251.9 ± 3.9
x1 = 1 | 236.59 ± 3.7 | 237.9 ± 3.7 | 239.26 ± 3.7 | 240.6 ± 3.7 | 241.94 ± 3.8 | 243.37 ± 3.8 | 244.81 ± 3.8 | 246.28 ± 3.8 | 247.76 ± 3.8
